16 compounds from US11123355B2, “Antiviral benzyl-amine phosphodiamide compounds” (Merck Sharp & Dohme Corp., priority 2016, dated 2021) can be followed below.

Read-outs that look alike come from different tables or passages of the source.

In the assay the test system is HIV-1 (H9/IIB strain). The assay is described as follows: Multiple Round HIV-1 Infection Assay (Viking Assay) in MT4-GFP cells. Format: cell-based. The note with it: inhibition of reproductive ratio R0. In outline:
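MT-4 cells with tat/rev-dependent GFP reporter infected overnight with virus at MOI ~0.01, then incubated in RPMI with 10% or 50% normal human serum with 10-point 3-fold dilutions (typically 8.4 μM–0.42 nM final). Green cells counted at ~48 and ~72 h to give R0; IC50 from 4-parameter fit of R0 inhibition.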

Setting [1] is: MT4-GFP cells infected with HIV-1, 10% normal human serum, read-out: Viking, IC50 (10% NHS).
Where [2] appears, read: MT4-GFP cells infected with HIV-1, 50% normal human serum, read-out: Viking, IC50 (50% NHS).

For `CCCOC(=O)C(C)(C)NP(=O)(CO[C@H](C)Cn1cnc2c(N)ncnc21)N[C@@H](C)c1ccc(Cl)cc1C` (stereo partly drawn) [Example 30A, propyl 2-(((R)-((((R)-1-(6-amino-9H-purin-9-yl)propan-2-yl)oxy)methyl)(((S)-1-(4-chloro-2-methylphenyl)ethyl)amino)phosphoryl)ami-no)-2-methylpropanoate and propyl 2-(((S)-((((R)-1-(6-amino-9H-purin-9-yl)propan-2-yl)oxy)methyl)(((S)-1-(4-chloro-2-methylphenyl)ethyl)amino)phosphoryl)ami-no)-2-methylpropanoate], the concentration for half-maximal inhibition (IC50) under setting [1] stood at 24 nM and the IC50 under setting [2] was found to be 350 nM.

Regarding “propyl 2-(((R)-((((R)-1-(6-amino-9H-purin- 9-yl)propan-2-yl)oxy)methyl)((4- isopropylbenzyl)amino)phosphoryl)amino)- 2-methylpropanoate and propyl 2-(((S)-((((R)-1-(6-amino-9H-purin- 9-yl)propan-2-yl)oxy)methyl)((4- isopropylbenzyl)amino)phosphoryl)amino)- 2-methylpropanoate [Example 5B]”, the half-maximal inhibitory concentration (IC50) under setting [1] amounted to 48 nM and the IC50 under setting [2] worked out at 240 nM.

Take `CCCOC(=O)C(C)(C)N[P@@](=O)(CO[C@H](C)Cn1cnc2c(N)ncnc21)N[C@@H](C)c1ccccc1OC` [Example 17A, propyl 2-(((R)-((((R)-1-(6-amino-9H-purin-9-yl)propan-2-yl)oxy)methyl)(((S)-1-(2-methoxyphenyl)ethyl)amino)phosphoryl)a-mino)-2-methylpropanoate and propyl 2-(((S)-((((R)-1-(6-amino-9H-purin-9-yl)propan-2-yl)oxy)methyl)(((S)-1-(2-methoxyphenyl)ethyl)amino)phosphoryl)a-mino)-2-methylpropanoate]: the IC50 reads like this: under setting [1], 24 nM; under setting [2], 310 nM.

Turning to “propyl 2-(((R)-((((R)-1-(6-amino-9H-purin- 9-yl)propan-2-yl)oxy)methyl)(((R)-1-(p- tolyl)ethyl)amino)phosphoryl)amino)-2- methylpropanoate and propyl 2-(((S)-((((R)-1-(6-amino-9H-purin- 9-yl)propan-2-yl)oxy)methyl)(((R)-1-(p- tolyl)ethyl)amino)phosphoryl)amino)-2- methylpropanoate [Example 16B]”, the IC50 was determined as 4.6 nM under setting [1] and 27 nM under setting [2].

For `CCCOC(=O)C(C)(C)N[P@@](=O)(CO[C@H](C)Cn1cnc2c(N)ncnc21)N[C@@H](C)c1ccc(OC)cc1` [Example 14A, propyl 2-(((R)-((((R)-1-(6-amino-9H-purin-9-yl)propan-2-yl)oxy)methyl)(((S)-1-(4-methoxyphenyl)ethyl)amino)phosphoryl)a-mino)-2-methylpropanoate and propyl 2-(((S)-((((R)-1-(6-amino-9H-purin-9-yl)propan-2-yl)oxy)methyl)(((S)-1-(4-methoxyphenyl)ethyl)amino)phosphoryl)a-mino)-2-methylpropanoate], the IC50 was found to be 25 nM under setting [1] and 140 nM under setting [2].

Regarding `CCCOC(=O)C(C)(C)NP(=O)(CO[C@H](C)Cn1cnc2c(N)ncnc21)N(C)Cc1ccc(C(C)C)cc1` (stereo partly drawn) [Example 32B, propyl 2-(((R)-((((R)-1-(6-amino-9H-purin-9-yl)propan-2-yl)oxy)methyl)((4-isopropylbenzyl)(methyl)amino)phos-phoryl)amino)-2-methylpropanoate and propyl 2-(((S)-((((R)-1-(6-amino-9H-purin-9-yl)propan-2-yl)oxy)methyl)((4-isopropylbenzyl)(methyl)amino)phos-phoryl)amino)-2-methylpropanoate], the half-maximal inhibitory concentration (IC50) reads like this: under setting [1], 10 nM; under setting [2], 41 nM.

Turning to `CCCOC(=O)C(C)(C)N[P@@](=O)(CO[C@H](C)Cn1cnc2c(N)ncnc21)N[C@@H](c1cccc(OC)c1)C(F)(F)F` [Example 28A, propyl 2-(((R)-((((R)-1-(6-amino-9H-purin-9-yl)propan-2-yl)oxy)methyl)(((S)-2,2,2-trifluoro-1-(3-methoxyphenyl)ethyl)amino)phosphoryl)a-mino)-2-methylpropanoate and propyl 2-(((S)-((((R)-1-(6-amino-9H-purin-9-yl)propan-2-yl)oxy)methyl)(((S)-2,2,2-trifluoro-1-(3-methoxyphenyl)ethyl)amino)phosphoryl)a-mino)-2-methylpropanoate], the 50% inhibitory concentration (IC50) was 29 nM under setting [1] and 330 nM under setting [2].

Consider “propyl 2-(((R)-((((R)-1-(6-amino-9H-purin- 9-yl)propan-2-yl)oxy)methyl)(((R)-2,2,2- trifluoro-1-(p- tolyl)ethyl)amino)phosphoryl)amino)-2- methylpropanoate and propyl 2-(((S)-((((R)-1-(6-amino-9H-purin- 9-yl)propan-2-yl)oxy)methyl)(((R)-2,2,2- trifluoro-1-(p- tolyl)ethyl)amino)phosphoryl)amino)-2- methylpropanoate [Example 26B]”, for which the half-maximal inhibitory concentration (IC50) was 34 nM under setting [1] and 200 nM under setting [2].

Regarding “propyl 2-(((R)-((((R)-1-(6-amino-9H-purin- 9-yl)propan-2-yl)oxy)methyl)((4- cyanobenzyl)amino)phosphoryl)amino)-2- methylpropanoate and propyl 2-(((S)-((((R)-1-(6-amino-9H-purin- 9-yl)propan-2-yl)oxy)methyl)((4- cyanobenzyl)amino)phosphoryl)amino)-2- methylpropanoate [Example 6B]”, the IC50 is, setting by setting: under setting [1], 250 nM; under setting [2], 850 nM.

With `CCCOC(=O)C(C)(C)NP(=O)(CO[C@H](C)Cn1cnc2c(N)ncnc21)N[C@H](c1ccc(OC(F)(F)F)cc1)C(F)(F)F` (some centres unmarked) [Example 4B], the IC50 by setting is: under setting [1], 16 nM; under setting [2], 160 nM.

Turning to `CCCOC(=O)C(C)(C)N[P@@](=O)(CO[C@H](C)Cn1cnc2c(N)ncnc21)NCc1ccc(OC(F)(F)F)cc1` [Example 7B, propyl 2-(((R)-((((R)-1-(6-amino-9H-purin-9-yl)propan-2-yl)oxy)methyl)((4-(trifluoromethoxy)benzyl)amino)phos-phoryl)amino)-2-methylpropanoate and propyl 2-(((S)-((((R)-1-(6-amino-9H-purin-9-yl)propan-2-yl)oxy)methyl)((4-(trifluoromethoxy)benzyl)amino)phos-phoryl)amino)-2-methylpropanoate], the IC50 reads like this: under setting [1], 45 nM; under setting [2], 300 nM.

Consider `CCCOC(=O)C(C)(C)N[P@@](=O)(CO[C@H](C)Cn1cnc2c(N)ncnc21)N[C@H](C)c1ccc(OC)cc1` [Example 15A, propyl 2-(((R)-((((R)-1-(6-amino-9H-purin-9-yl)propan-2-yl)oxy)methyl)(((R)-1-(4-methoxyphenyl)ethyl)amino)phosphoryl)a-mino)-2-methylpropanoate and propyl 2-(((S)-((((R)-1-(6-amino-9H-purin-9-yl)propan-2-yl)oxy)methyl)(((R)-1-(4-methoxyphenyl)ethyl)amino)phosphoryl)a-mino)-2-methylpropanoate], for which the IC50 came out at 74 nM under setting [1] and 410 nM under setting [2].

As to `CCCOC(=O)C(C)(C)NP(=O)(CO[C@H](C)Cn1cnc2c(N)ncnc21)N[C@H](C)c1ccc(OC(F)(F)F)cc1C` (stereo partly drawn) [Example 21A, Propyl 2-(((R)-((((R)-1-(6-amino-9H-purin-9-yl)propan-2-yl)oxy)methyl)(((R)-1-(2-methyl-4-(trifluoromethoxy)phenyl)ethyl)amino)phos-phoryl)amino)-2-methylpropanoate and propyl 2-(((S)-((((R)-1-(6-amino-9H-purin-9-yl)propan-2-yl)oxy)methyl)(((R)-1-(2-methyl-4-(trifluoromethoxy)phenyl)ethyl)amino)phos-phoryl)amino)-2-methylpropanoate], the IC50 by setting is: under setting [1], 150 nM; under setting [2], 800 nM.

Regarding `CCCOC(=O)C(C)(C)NP(=O)(CO[C@H](C)Cn1cnc2c(N)ncnc21)N(C)[C@H](C)c1ccc(Cl)cc1` (single isomer, unassigned) [Example 2B], the IC50 runs as follows: (Human immunodeficiency virus 1, MT4-GFP cells infected with HIV-1, 10% normal human serum, read-out: Viking, IC50 (10% NHS)) 2 nM; (Human immunodeficiency virus 1, MT4-GFP cells infected with HIV-1, 50% normal human serum, read-out: Viking, IC50 (50% NHS)) 9.6 nM.

Take `CCCOC(=O)C(C)(C)NP(=O)(CO[C@H](C)Cn1cnc2c(N)ncnc21)N[C@@H](C)c1ccc(C(F)(F)F)cc1` (stereo partly drawn) [Example 11B, propyl 2-(((R)-((((R)-1-(6-amino-9H-purin-9-yl)propan-2-yl)oxy)methyl)(((S)-1-(4-(trifluoromethyl)phenyl)ethyl)amino)phos-phoryl)amino)-2-methylpropanoate and propyl 2-(((S)-((((R)-1-(6-amino-9H-purin-9-yl)propan-2-yl)oxy)methyl)(((S)-1-(4-(trifluoromethyl)phenyl)ethyl)amino)phosphoryl)amino)-2-methylpropanoate]: the IC50 came to 16 nM under setting [1] and 84 nM under setting [2].

Turning to `CCCOC(=O)C(C)(C)NP(=O)(CO[C@H](C)Cn1cnc2c(N)ncnc21)N(C)Cc1ccc(C(C)C)cc1` (stereo partly drawn) [Example 32A, propyl 2-(((R)-((((R)-1-(6-amino-9H-purin-9-yl)propan-2-yl)oxy)methyl)((4-isopropylbenzyl)(methyl)amino)phos-phoryl)amino)-2-methylpropanoate and propyl 2-(((S)-((((R)-1-(6-amino-9H-purin-9-yl)propan-2-yl)oxy)methyl)((4-isopropylbenzyl)(methyl)amino)phos-phoryl)amino)-2-methylpropanoate], the concentration for half-maximal inhibition (IC50) under setting [1] turned out to be 1.7 nM and the 50% inhibitory concentration (IC50) under setting [2] was 6.7 nM.
